This note sets out measurements from ChEMBL document CHEMBL1201862, “PubChem BioAssay data set” (2004).

What all share (test): inhibition of tumour cell growth, NCI panel, 48 h
Assay [1] relates to MDA-MB-435.
The subject of assay [2] is SW-620.
The subject of assay [3] is PC-3.
Assay [4] has as its system UO-31.
Assay [5] relates to SK-OV-3.
Assay [6] relates to OVCAR-3.
For assay [7], the system named is IGROV-1.
Assay [8] has as its system SNB-19.
Assay [9] relates to NCI-H522.
The test system of assay [10] is CAKI-1.
Assay [11] relates to SK-MEL-2.
The subject of assay [12] is HT-29.
The subject of assay [13] is A498.
The subject of assay [14] is SF-295.
Assay [15] deals with MDA-MB-231.
Assay [16] deals with SK-MEL-28.
Assay [17] has as its system CCRF-CEM.
Assay [18] has as its system HL-60.
Assay [19] deals with RXF 393.
In assay [20] the test system is SR.

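Protocol summary: plate cells (96-well), add compound at 5 concentrations, incubate 48 h, interpolate endpoints linearly. The concentration for 50% growth inhibition is given as GI50.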 The source made the active and inactive calls. No stated cut-off is given here; in the data, active = GI50 up to about 1.1 µM and inactive = higher. Bridge positions count the residues as written; N and C are the ends. Where a SMILES comes first, the peptide text is derived from it. Peptide text beside a SMILES is read from it. [ ]: non-standard residue; d: D form. * marks the point of attachment. Aoe = N[C@@H](CCCCCC(=O)[C@@H]1CO1)C(=O)O; Cbz = O=C(OCc1ccccc1)*

Take `O=C1N[C@@H](Cc2ccccc2)C(=O)N2CCC[C@@H]2C(=O)N[C@@H](CCCCCC(=O)[C@@H]2CO2)C(=O)N[C@H]1Cc1ccccc1` [TRAPOXIN B] (cyclo(FF[dP][Aoe])): the GI50 in assay [1] is 0.000546 µM (active); in assay [2], 0.000305 µM (active); in assay [3], 0.00209 µM (active); in assay [4], 0.00209 µM (active); in [5] it was 0.05 µM (active); in assay [6], 0.00122 µM (active). Also, the GI50 in assay [7] is 0.019 µM (active); in assay [8], 0.103 µM (active); in [9] it was 0.00052 µM (active); in assay [10], 0.00157 µM (active); in assay [11], 0.00116 µM (active); in [12] it was < 0.000212 µM (active). In addition, the GI50 is 0.518 µM (active) in assay [13]; 0.0145 µM (active) in [14]; 0.161 µM (active) in assay [15]; 0.000713 µM (active) in assay [16]; 0.0151 µM (active) in [17].
`Cc1ccc(-n2cc([Si](C)(C)C)nn2)s1`: the GI50 was > 100 µM (inactive) in assay [1]; > 100 µM (inactive) in assay [2]; 97.5 µM (inactive) in assay [3]; 84.3 µM (inactive) in assay [4]; > 100 µM (inactive) in assay [5]; > 100 µM (inactive) in assay [6]. The GI50 in assay [8] is > 100 µM (inactive); in assay [9] it was > 100 µM (inactive); in assay [10], > 100 µM (inactive); in assay [11], > 100 µM (inactive); in [12], 34.8 µM (inactive); in [13], > 100 µM (inactive). Further, the GI50 in assay [14], in assay [15] and in [16] was > 100 µM (inactive) each time.
`O=c1cc(N2CCCC2)[nH]c(=O)n1-c1cccc(Cl)c1`: the GI50 in assay [1], in [2], in assay [3], in assay [18], in assay [5] and in [6] was > 100 µM (inactive) in each case. The GI50 in assay [7], in assay [8], in [9], in assay [10], in assay [11] and in assay [12] was > 100 µM (inactive) each time. The GI50 in assay [13], in assay [14], in assay [19], in [15] and in assay [17] was > 100 µM (inactive) throughout.
Take `CC1(c2ccc(Cl)s2)CC(c2ccc(Cl)s2)=C(C#N)C(=C(C#N)C#N)N1` (stereo unspecified): the GI50 is 18.4 µM (inactive) in [1]; 13.9 µM (inactive) in [2]; 17.6 µM (inactive) in assay [3]; 18.7 µM (inactive) in assay [4]; 16.7 µM (inactive) in [18]; 16.9 µM (inactive) in assay [5]. Further, the GI50 in assay [6] is 15 µM (inactive); in assay [7], 19.9 µM (inactive); in assay [8], 20.8 µM (inactive); in assay [10] it was 19.1 µM (inactive); in assay [11], 18.6 µM (inactive); in assay [12], 19.2 µM (inactive). Besides, the GI50 was 19.4 µM (inactive) in assay [13]; 15 µM (inactive) in assay [14]; 16.9 µM (inactive) in assay [19]; 23.2 µM (inactive) in assay [15]; 19.4 µM (inactive) in [16]; 16 µM (inactive) in [17].
With `O=C(Nc1ccccc1)c1cc(S(=O)(=O)Nc2nc3cccnc3[nH]2)c(SSc2cc(Cl)c(C(=O)Nc3ccccc3)cc2S(=O)(=O)Nc2nc3cccnc3[nH]2)cc1Cl`, the GI50 in assay [1], in [2], in [3], in assay [4], in assay [18] and in [5] was > 100 µM (inactive) throughout. In addition, the GI50 in assay [6], in assay [7], in [8], in [9], in [10] and in [11] was > 100 µM (inactive) throughout. The GI50 in [12], in assay [13], in assay [14], in assay [19], in assay [15] and in [16] was > 100 µM (inactive) in each case. In addition, the GI50 in [17] is > 100 µM (inactive).
On to `COC(=O)c1c(-c2ccc(Cl)cc2)cc2c3ccccc3n(C)c2c1C(=O)OC`, for which the GI50 is > 100 µM (inactive) in assay [1]; > 100 µM (inactive) in assay [2]; > 100 µM (inactive) in assay [3]; 2.47 µM (inactive) in assay [4]; 26.8 µM (inactive) in [18]; > 100 µM (inactive) in assay [5]. Further, the GI50 in assay [6] was > 100 µM (inactive); in [7], > 100 µM (inactive); in assay [8], > 100 µM (inactive); in assay [9], 67.5 µM (inactive); in [10], > 100 µM (inactive); in assay [11] it was > 100 µM (inactive). For the same compound, the GI50 in [12] was 91.6 µM (inactive); in assay [13], > 100 µM (inactive); in assay [14], > 100 µM (inactive); in assay [15] it was > 100 µM (inactive); in [16], > 100 µM (inactive); in assay [17], 7.85 µM (inactive).
Take `Cc1cc(S(=O)(=O)Nc2nc3ccsc3c(=O)n2N)c(S)cc1Cl`: the GI50 in assay [1] was 83.8 µM (inactive); in assay [2], > 100 µM (inactive); in assay [3], > 100 µM (inactive); in assay [18], > 100 µM (inactive); in [5], > 100 µM (inactive); in assay [6], > 100 µM (inactive). Further, the GI50 was > 100 µM (inactive) in assay [7]; 37.2 µM (inactive) in assay [8]; 44 µM (inactive) in assay [9]; > 100 µM (inactive) in [10]; 76.2 µM (inactive) in assay [11]; > 100 µM (inactive) in assay [12]. Besides, the GI50 is 31.3 µM (inactive) in assay [14], 70.1 µM (inactive) in assay [15], > 100 µM (inactive) in assay [16] and 71.9 µM (inactive) in [17].
As for `O=C(O)c1ccccc1C(=O)Nn1cnnc1`, the GI50 in assay [1], in [2], in [3], in [4], in assay [5] and in [6] was > 100 µM (inactive) throughout. The GI50 in assay [7], in assay [8], in assay [9], in assay [11], in [12] and in assay [14] was > 100 µM (inactive) each time. Also, the GI50 in assay [19], in assay [15], in assay [16] and in [17] was > 100 µM (inactive) in each case.
`CC1(C)[C@@H]2C[C@H]1C(Cc1cccc(C[C@H]3c4cc(-c5ccccn5)ncc4[C@H]4C[C@@H]3C4(C)C)c1)c1cc(-c3ccccn3)ncc12` (stereo partly specified): the GI50 in assay [1] was 0.548 µM (active); in assay [2] it was 0.745 µM (active); in assay [3], 0.875 µM (active); in assay [4], 0.785 µM (active); in assay [18], 0.295 µM (active); in [5], 1.25 µM (inactive). In addition, the GI50 in [6] was 0.502 µM (active); in assay [7] it was 0.452 µM (active); in assay [8], 1.61 µM (inactive); in assay [9] it was 1.63 µM (inactive); in assay [10], 1.74 µM (inactive); in assay [11] it was 12.9 µM (inactive). Moreover, the GI50 in assay [12] was 0.951 µM (active); in assay [13] it was 3.51 µM (inactive); in assay [14], 0.92 µM (active); in assay [19], 8.41 µM (inactive); in [15] it was 22.6 µM (inactive); in [16], 4.93 µM (inactive). The GI50 in [17] was 0.337 µM (active).
On to `CNC(=O)C1CCCCNC(=O)CCC(NC(=O)OCc2ccccc2)C(=O)N1` (stereo not drawn) (Cbz-Glu-Lys-NHMe; lactam 1-2; configuration not given here), for which the GI50 in assay [1], in assay [2], in assay [3], in assay [4], in [18] and in [5] was > 100 µM (inactive) throughout. The GI50 in assay [6], in assay [7], in assay [8], in [9], in assay [10] and in [11] was > 100 µM (inactive) in each case. For the same compound, the GI50 was > 100 µM (inactive) in assay [12]; 39.5 µM (inactive) in assay [13]; > 100 µM (inactive) in [14]; > 100 µM (inactive) in assay [19]; > 100 µM (inactive) in assay [15]; > 100 µM (inactive) in assay [16]. Further, the GI50 in assay [17] was > 100 µM (inactive).
As to `O=C(O)CCCc1ccc2c(c1)C(C(=O)O)CC2` (stereo unspecified), the GI50 in assay [2], in assay [3], in assay [4], in assay [18], in assay [5] and in assay [7] was > 100 µM (inactive) in each case. Also, the GI50 in [8], in assay [9], in assay [10], in assay [11], in assay [12] and in [14] was > 100 µM (inactive) throughout. Further, the GI50 in [20], in assay [19], in assay [15], in assay [16] and in assay [17] was > 100 µM (inactive) each time.
